According to patent publication US6825230B2, “Spiro and dispiro 1,2,4-trixolane antimalarials” (Medicines for Malaria Venture MMV, priority 2002, dated 2004):
Converted amounts (≈) assume the structure as drawn. Read-outs that look alike come from different tables or passages of the source.

Tests used:
[1] = system: ANKA strain of P. berghei; experiment: Single dose STI in vivo screen in infected mice; design: species or system Plasmodium berghei; settings: for Survival (days) 10 mg/kg po: single 10 mg/kg po in 3% ethanol and 7% Tween 80; for Survival (days) 10 mg/kg po / Survival (days) 10 mg/kg SSV po / Survival (days) 10 mg/kg sc: untreated 6-7 days; for Activity (%) 10 mg/kg po: single 10 mg/kg po in 3% ethanol and 7% Tween 80 on day 1 post-infection; for Activity (%) 10 mg/kg po / Activity (%) 10 mg/kg SSV po / Activity (%) 10 mg/kg sc / Activity (%) 3 mg/kg SSV po: percent reduction in parasitemia on day 3; for Survival (days) 10 mg/kg SSV po: single 10 mg/kg po in SSV; for Activity (%) 10 mg/kg SSV po: single 10 mg/kg po in standard suspending vehicle (SSV) on day 1 post-infection; for Survival (days) 10 mg/kg sc: single 10 mg/kg sc in 3% ethanol and 7% Tween 80; for Activity (%) 10 mg/kg sc: single 10 mg/kg sc in 3% ethanol and 7% Tween 80 on day 1 post-infection; for Survival (days) 3 mg/kg SSV po / Activity (%) 3 mg/kg SSV po: single 3 mg/kg po in SSV
[2] = system: chloroquine-sensitive NF54 strain of P. falciparum; experiment: In vitro antimalarial semiautomated microdilution assay ([3H]-hypoxanthine incorporation), NF54 strain; assay type: cell-based, Plasmodium falciparum; settings: Plasmodium falciparum
Description: (§1) Various OZ compounds were tested by the semiautomated microdilution assay against intraerythrocytic forms of Plasmodium falciparum derived from asynchronous stock cultures.
(§2) Fifty percent inhibitory concentration (IC50) were estimated by Logit regression analysis.

[3] = system: chloroquine-resistant K1 strain of P. falciparum; experiment: In vitro antimalarial semiautomated microdilution assay ([3H]-hypoxanthine incorporation), K1 strain; assay type: cell-based, Plasmodium falciparum; settings: Plasmodium falciparum
Description: as §1, §2

[4] = chloroquine-sensitive NF54 strain, 72 h incubation, read-out: IC50 (ng/ml) NF54
[5] = chloroquine-resistant K1 strain, 72 h incubation, read-out: IC50 (ng/ml) K1
[6] = NF54, 72 h, read-out: IC50 (ng/ml) NF54, chloroquine-sensitive NF54 strain, 72 h incubation
[7] = K1, 72 h, read-out: IC50 (ng/ml) K1, chloroquine-resistant K1 strain, 72 h incubation

Structure (SMILES) | Survival (days) 10 mg/kg po [1] | Activity (%) 10 mg/kg po [1] | Survival (days) 10 mg/kg SSV po [1] | Activity (%) 10 mg/kg SSV po [1] | Survival (days) 10 mg/kg sc [1] | Activity (%) 10 mg/kg sc [1] | IC50 [2, 4] | IC50 [3, 5] | Survival (days) 3 mg/kg SSV po [1] | Activity (%) 3 mg/kg SSV po [1] | IC50 [2, 6] | IC50 [3, 7]
CCOC(=O)c1cccc([C@H]2CC[C@]3(CC2)OOC2(O3)C3CC4CC(C3)CC2C4)c1 (stereo partly drawn) [OZ208] | 6.3 days | 0% | 6.7 days | 29% | 5.7 days | 10% | 6.5 ng/mL (≈ 15.8 nM) | 6 ng/mL (≈ 14.5 nM) |  |  |  | 
O=C(NC[C@H]1CC[C@]2(CC1)OOC1(O2)C2CC3CC(C2)CC1C3)c1ccncc1 (stereo partly drawn) [OZ255] | 9.0 days | 99.61% | 8.7 days | 99.54% | 10.0 days | 99.92% | 1.1 ng/mL (≈ 2.76 nM) | 2.2 ng/mL (≈ 5.52 nM) |  |  |  | 
CS(=O)(=O)C[C@H]1CC[C@]2(CC1)OO[C@]1(O2)C2CC3CC(C2)CC1C3 [OZ307] |  |  | 9.4 days | 98% |  |  |  |  | 7.8 days | 74% | 0.88 ng/mL (≈ 2.47 nM) | 0.62 ng/mL (≈ 1.74 nM)
O=C1c2ccccc2C(=O)N1CC1(c2ccccc2)CCC2(CC1)OOC1(O2)C2CC3CC(C2)CC1C3 (stereo not drawn) [OZ97] | 6.7 days | 59% | 5.3 days | 2% | 7.0 days | 66% |  |  |  |  | 1.8 ng/mL (≈ 3.6 nM) | 2.2 ng/mL (≈ 4.4 nM)
O=C(O)c1ccc(C2(c3ccc(C(=O)O)cc3)OOC3(O2)C2CC4CC(C2)CC3C4)cc1 (stereo not drawn) [OZ135, Adamantane-2-spiro-3′-5′,5′-bis(4′-carboxyphenyl)-1′,2′,4′-trioxolane] | 5.3/5.3/5.3 days | 1% | 5.3/5.3/5.3 days | 0% | 5.3/5.3/5.3 days | 0% |  |  |  |  | > 100 ng/mL | > 100 ng/mL
O=C(NO)c1ccc([C@H]2CC[C@]3(CC2)OOC2(O3)C3CC4CC(C3)CC2C4)cc1 (stereo partly drawn) [OZ183] | 6.0 days | 65% | 6.0 days | 19% | 8.3 days | 81% |  |  |  |  | 2.1 ng/mL (≈ 5.26 nM) | 0.8 ng/mL (≈ 2 nM)
O=C(O)CNC[C@H]1CC[C@]2(CC1)OO[C@]1(O2)C2CC3CC(C2)CC1C3 [OZ309] |  |  | 8.8 days | 99.80% |  |  |  |  | 7.8 days | 86% | 17 ng/mL (≈ 48.4 nM) | 11 ng/mL (≈ 31.3 nM)
CCOC(=O)C1(C(=O)OCC)COC2(CCC3(CC2)OOC2(O3)C3CC4CC(C3)CC2C4)OC1 (stereo not drawn) [OZ120, Adamantane-2-spiro-3′-11′,11′-bis(ethoxycarbonyl)-1′,2′,4′,9′,13′-pentaoxadispiro[4.2.5.2]pentadecane] | 6.0 days | 33% | 5.7 days | 8% | 8.0 days | 96% | 0.59 ng/mL (≈ 1.23 nM) | 1.2 ng/mL (≈ 2.5 nM) |  |  |  | 
N#Cc1ccc(C2(c3ccccc3)OOC3(O2)C2CC4CC(C2)CC3C4)cc1 (stereo not drawn) [OZ124] | 6.3 days | 72% | 5.3 days | 17% | 7.0 days | 86% | 1.7 ng/mL (≈ 4.55 nM) | 2.1 ng/mL (≈ 5.62 nM) |  |  |  | 
CONC(=O)C[C@H]1CC[C@]2(CC1)OOC1(O2)C2CC3CC(C2)CC1C3 (stereo partly drawn) [OZ213] | 8.0/8.0/8.0 days | 83% | 8.0/8.0/8.0 days | 74% | 8.0/8.0/8.0 days | 85% | 2.8 ng/mL (≈ 7.97 nM) | 2.3 ng/mL (≈ 6.54 nM) |  |  |  | 
C=C1COC2(CCC3(CC2)OOC2(O3)C3CC4CC(C3)CC2C4)OC1 (stereo not drawn) [OZ128, Adamantane-2-spiro-3′-11′-methylene-1′,2′,4′,9′,13′-pentaoxadispiro[4.2.5.2]pentadecane] | 8.3 days | 99.93% | 8.7 days | 99.95% | 11.7 days | 99.98% |  |  |  |  | 1.1 ng/mL (≈ 3.16 nM) | 0.59 ng/mL (≈ 1.69 nM)
CN(C)C(=O)NC[C@H]1CC[C@]2(CC1)OOC1(O2)C2CC3CC(C2)CC1C3 (stereo partly drawn) [OZ266] | 13.7 days | 99% | 11.7 days | 99.39% | 11.7 days | 99.75% | 1.5 ng/mL (≈ 4.12 nM) | 1.1 ng/mL (≈ 3.02 nM) |  |  |  | 
NNC(=O)C[C@H]1CC[C@]2(CC1)OO[C@]1(O2)C2CC3CC(C2)CC1C3 [OZ340] |  |  | 9.2 days | 93% |  |  |  |  | 6.4 days | 36% | 2.9 ng/mL (≈ 8.62 nM) | 4.9 ng/mL (≈ 14.6 nM)
Clc1ccc2c(NCCNC3CCC4(CC3)OOC3(O4)C4CC5CC(C4)CC3C5)ccnc2c1 (stereo not drawn) [OZ258] | 6.0 days | 75% | 6.0 days | 70% | 10.7 days | 99.95% | 5.2 ng/mL (≈ 10.7 nM) | 5.8 ng/mL (≈ 12 nM) |  |  |  | 
O=C(O)c1ccc([C@H]2CC[C@]3(CC2)OOC2(O3)C3CC4CC(C3)CC2C4)cc1 (stereo partly drawn) [OZ165] | 6.3 days | 18% | 6.0 days | 3% | 5.7 days | 9% |  |  |  |  | > 10 ng/mL | 39 ng/mL (≈ 101 nM)
NCC1(c2ccccc2)CCC2(CC1)OOC1(O2)C2CC3CC(C2)CC1C3 (stereo not drawn) [OZ117] | 7.0 days | 95% | 7.7 days | 96% | 8.7 days | 99.94% |  |  |  |  | 1.2 ng/mL (≈ 3.25 nM) | 2.1 ng/mL (≈ 5.68 nM)
c1csc(NC[C@H]2CC[C@]3(CC2)OOC2(O3)C3CC4CC(C3)CC2C4)n1 (stereo partly drawn) [OZ252] | 8.3 days | 98.91% | 9.0 days | 99.49% | 9.3 days | 99.82% | 2.2 ng/mL (≈ 5.84 nM) | 2.3 ng/mL (≈ 6.11 nM) |  |  |  | 
O=C(C[C@H]1CC[C@]2(CC1)OOC1(O2)C2CC3CC(C2)CC1C3)N1CCN(c2ccccc2)CC1 (stereo partly drawn) [OZ244] | 5.7 days | 6% | 5.3 days | 0% | 6.3 days | 18% | 4.2 ng/mL (≈ 9 nM) | 4 ng/mL (≈ 8.57 nM) |  |  |  | 
